Paper PMC4998957 (Nature, 2016)

How the values were obtained:
CAHexamer = CAHexamer (Human immunodeficiency virus type 1 group M subtype B, UniProt P12493, A146C/E177C/M317A/W316A); type: binding, HIV-1
[1] = biological target: CAHexamer (disulfide-stabilised HIV-1 capsid hexamer) (Human immunodeficiency virus type 1 group M subtype B, UniProt P12493, A146C/E177C/M317A/W316A); type: binding
[2] = biological target: disulfide-stabilised HIV-1 capsid protein hexamer (CA_(Hexamer)) R18G (HIV-1); test: cross-linking
HIV-1 capsid cores = test: Endogenous reverse transcription; type: biochemical; conditions: DNase I and RNase A 100 μg/ml, Benzonase 250 U/ml, 100 μM each dNTP, 16 h

In the case of `Nc1ccn([C@H]2C[C@H](O)[C@@H](COP(=O)(O)OP(=O)(O)OP(=O)(O)O)O2)c(=O)n1` [dCTP], the “on-rate (kon)” value (CAHexamer) is reported as greater than 2e+08 M⁻¹ s⁻¹, the “half life of complex” value (CAHexamer; equivalent of the off-rate) is reported as 0.058 s and the off-rate (CAHexamer; fluorescent dCTP displaced with excess unlabeled dCTP (20 µM)) is reported as greater than 12 s⁻¹.

`Cc1cn([C@H]2C[C@H](O)[C@@H](COP(=O)(O)OP(=O)(O)OP(=O)(O)O)O2)c(=O)[nH]c1=O` [dTTP] was tested, and the “effect of 1 mM (physiological) inorganic phosphate on hexamer binding” value ([1]; 2 nM fluorescein-labelled dTTP, 1 mM inorganic phosphate) was “no significant effect” and the “comparison of affinity of ribose and deoxyribose nucleoside triphosphates” value ([1]; titration of CAHexamer into labelled nucleotides) was “same affinity”.

Work on “disulfide-stabilised HIV-1 capsid protein hexamer (CA_(Hexamer)) R18G (natural protein)” yielded a stoichiometry N [2] of 6.

B1: RNase A: nuclease (protein, UniProt P61823 27-150, looked up)
Ribonuclease pancreatic: KETAAAKFERQHMDSSTSAASSSNYCNQMMKSRNLTKDRCKPVNTFVHESLADVQAVCSQKNVACKNGQTNCYQSYSTMSITDCRETGSSKYPNCAYKTTQANKHIIVACEGNPYVPVHFDASV
B1 was tested, and the “effect of nucleases on encapsidated reverse transcription” value (HIV-1 capsid cores) was “failed to prevent”.
